Where a name gives a salt, the structure may show the parent alone. Read-outs that look alike come from different tables or passages of the source.
Assays:
Assay type in all cases: cell-based
Settings in all cases: read-out: DRUG IC50
[1] = test system: MCF7 human breast carcinoma; test: MTT dose response cytotoxicity, MCF7 (Table 1)
Procedure: (§1) Cytotoxicity experiments on AHVB were performed as direct comparisons with vincristine and navelbine in order to assess its inherent antineoplastic profile against a variety of tumour cell types relative to other relevant vinca alkaloids. The cytotoxicity of AHVB was investigated in vitro against a panel of tumour cell lines of varying lineage in order to determine the specificity of its antitumour activity with respect to cell type. The tumour lines studied were P388 lymphocytic leukemia (a murine lymphocytic leukemia), Noble (Nb) rat U17 lymphoma, MCF7 human breast carcinoma, H460 human non-small cell lung carcinoma, K562 human erythrokeukemia and LS180 human colon carcinoma based on established NCI in vitro new anticancer drug cytotoxicity screening protocols.
(§2) Standard dose response cytotoxicity assays (R. Mosmass, J. Immunol. Meth., 65:55-64, 1983) were utilized to determine the IC50 (drug concentration required to induce 50% inhibition of tumour cell growth) for vincristine, navelbine and AHVB. The indicated cell lines were obtained from either the ATCC or NCI tumor repository and were cultured in tissue culture media by standard techniques well known to those skilled in the art, prior to dilution to a defined cell concentration required for the studies in 96 well plates.
(§3) A wide range of drug concentrations were exposed to tumour cells growing at log phase in 96-well microtitre plates. Cell concentrations depended on the cell line as well as the length of time to be cultured. Typically, P388 cells were plated at a concentration of 30,000, 2,000 and 750 cells per well for studies lasting 1, 3 and 7 days, respectively MCF7 cells were plated at a concentration of 7,000 and 1,500 cells per well for studies lasting 3 and 7 days, respectively. H460 cells were plated at a concentration of 2,500 and 1,000 cells per well for studies lasting 3 and 7 days, respectively. K562 cells were plated at a concentration of 1,500 and 10,000 cells per well for studies lasting 1 and 3 days, respectively. LS180 cells were plated at a concentration of 5,000 and […] cells per well for studies lasting 3 and 7 days, respectively. After plating all cell lines were incubated (CO2 incubator at 37° C., 5% CO2) for 24 hours prior to addition of the cytotoxic agent (See Table 1). Subsequently the plates were incubated for the indicated time period. At specified times, cells were washed and subsequently exposed to the dye inclusion marker MTT (3-(4,5-dimethylthiazol-2-yl)-2,5diphenyl tetrazolium), which accumulated into viable cells. MTT was added to the cells at a final concentration of 50 μg per well. After a 4 hour incubation, the cells were washed free of media and unreacted MTT, prior to addition of DMSO which was required to solubilize the insoluble formazan precipitate that formed in viable cells. After the sample was mixed through repeated pipetting, the colored product was measured using a plate reader operating at 570 nm. The absorbance values obtained for cells cultured in the absence of drug was assumed to represent 100% viability. Experiments were repeated to substantiate any differences noted between […] and other vinca alkaloids.

[2] = test system: H460 human non-small cell lung carcinoma; test: MTT dose response cytotoxicity, H460 (Table 1)
Procedure: as §1, §2, §3

[3] = test system: K562 human erythroleukemia; test: MTT dose response cytotoxicity, K562 (Table 1)
Procedure: as §1, §2, §3

[4] = test system: LS180 human colon carcinoma; test: MTT dose response cytotoxicity, LS180 (Table 1)
Procedure: as §1, §2, §3

[5] = 72 h, MCF7, exposure time 3 days
[6] = 168 h, MCF7, exposure time 7 days
[7] = NCI-H460, 72 h, H460, exposure time 3 days
[8] = NCI-H460, 168 h, H460, exposure time 7 days
[9] = 24 h, K562, exposure time 1 day
[10] = 72 h, K562, exposure time 3 days
[11] = 72 h, LS180, exposure time 3 days
[12] = 168 h, LS180, exposure time 7 days

Row | SMILES | IC50 [1, 5] | IC50 [1, 6] | IC50 [2, 7] | IC50 [2, 8] | IC50 [3, 9] | IC50 [3, 10] | IC50 [4, 11] | IC50 [4, 12] | IC50 ([1]; MCF7, 72 h) | IC50 ([1]; MCF7, 168 h) | IC50 ([2]; NCI-H460, 72 h) | IC50 ([2]; NCI-H460, 168 h) | IC50 ([3]; K562, 24 h) | IC50 ([3]; K562, 72 h) | IC50 ([4]; LS180, 72 h) | IC50 ([4]; LS180, 168 h)
1 | CC[C@]1(O)C[C@H]2CN(CCc3c([nH]c4ccccc34)[C@@](C(=O)OC)(c3cc4c(cc3OC)N(C=O)[C@H]3[C@@](O)(C(=O)OC)[C@H](OC(C)=O)[C@]5(CC)C=CCN6CC[C@]43[C@@H]65)C2)C1 [vincristine, Sulfate of 22-oxovincaleukoblastine] | > 2500 nM | 2.6 ± 1.6 nM | 3.5 nM | 2.5 nM | > 50 nM | 1.5 ± 0.4 nM | > 50 nM | 1.5 nM | – | – | – | – | – | – | – | –
2 | CCC1=CC2CN(CCc3c([nH]c4ccccc34)C(C(=O)OC)(c3cc4c(cc3OC)N(C)C3C(O)(C(=O)OC)C(OC(C)=O)C5(CC)C=CCN6CCC43C65)C2)C1 (stereo not drawn) [AHVB, 3',4'-anhydrovinblastine] | – | – | – | – | – | – | – | – | > 2500 nM | 31.3 ± 12.4 nM | 10 nM | 5 nM | > 50 nM | 18.8 ± 8.8 nM | > 50 nM | 17.5 nM
3 | CCC1=C[C@@H]2CN(C1)Cc1c([nH]c3ccccc13)[C@@](C(=O)OC)(c1cc3c(cc1OC)N(C)[C@H]1[C@@](O)(C(=O)OC)[C@H](OC(C)=O)[C@]4(CC)C=CCN5CC[C@]31[C@@H]54)C2 [navelbine, 3',4'-didehydro-4'-deoxy-C'-norvincaleukoblastine-di-L-tartrate] | > 2500 nM | 2.6 ± 1.6 nM | 0.3 nM | > 0.5 nM | > 50 nM | 2.5 ± 2.2 nM | > 50 nM | 0.5 nM | – | – | – | – | – | – | – | –
